The text below walks through data of PubChem BioAssay (NCI).

Values joined by “and” are separate entries in the source; they are usually repeats but may differ in a detail not shown here. Identical values can stand only once.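 96-well plates; 48 h exposure; 5 concentrations. Endpoints by linear interpolation between flanking doses. Not reached: highest tested concentration assigned. At the GI50, growth is halved. TGI marks complete inhibition of growth.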

The first test has as its system MDA-MB-231 breast. Briefly: NCI-60 cell line screen, 48 h.
For the compound `Cc1cc(S(=O)(=O)N/N=C(\Sc2cc(Cl)c(C)cc2S(N)(=O)=O)c2ccc(Cl)cc2)c(Cl)cc1Cl`, the GI50 is 34.2 µM and the TGI was more than 100 µM.
On to `COc1ccc(C(=O)COc2cccc(/C=C3\Oc4ccc5ccccc5c4C3=O)c2)cc1`, for which the GI50 was 11.9 µM and the TGI is 25.6 µM.
For `Cc1c(C2=C(Br)C(=O)N(C)C2=O)c(=O)n(C)c(=O)n1C`, the TGI turned out to be 65.3 µM.
In the case of `Cc1cc(N/N=C/c2nc(-c3ccc(Br)cc3)oc2C)c2cc(Br)ccc2n1`, the GI50 was 2.95 µM and the TGI was 10.1 µM.
On to `CC(C)OC(=O)NNc1cc(Cl)ccc1Cl`, for which the TGI was more than 100 µM.
With `Cc1cc(C2CC(O)C(CO)O2)cc2c(=O)[nH]c(N)nc12` (stereo not given), the GI50 was more than 100 µM and the TGI was more than 100 µM.
For `COc1ccc2c(O)cc3c(c2c1)[C@H](CCl)CN3C(=O)c1cc2cc(NC(=O)CCN3CCOCC3)ccc2[se]1`, the GI50 is less than 0.001 µM and the TGI came out at 0.105 µM.
As to `CC(C)N=c1cc2n(-c3ccc(Cl)cc3)c3ccccc3nc-2cc1Nc1ccc(Cl)cc1`, the GI50 was 0.618 µM and 1.07 µM; the TGI was more than 50 µM.
Consider `Cc1cc2c(cc1Cl)SC(=Nc1ccc(Cl)cc1)N(S(=O)(=O)c1ccccc1)S2(=O)=O`, for which the GI50 was 2.79 µM and the TGI worked out at 16 µM.
For the compound `Cc1ccc(S(=O)(=O)NCCNc2nccc(-c3c(-c4ccc(F)cc4)nc4sccn34)n2)cc1`, the GI50 was 11 µM and the TGI was more than 100 µM.
As to `C=C1C(=O)O[C@H]2[C@H]1CC/C(COC(=O)c1ccc(Cl)nc1)=C\CC[C@@]1(C)O[C@@H]21`, the GI50 is 2.4 µM and the TGI was 5.7 µM.
In turn, `C=C1C(=O)O[C@H]2/C=C(/C)C3=CC(=O)[C@@](C)(C[C@@H](OC(=O)/C(C)=C\C)C12)O3` (stereo not given in full) came in with a TGI of 11.5 µM.
Turning to `O=C(CSC(c1ccccc1)c1ccccc1)N/N=C/c1ccc(Cl)cc1Cl`, the GI50 was 22.5 µM and the TGI was more than 100 µM.

In another test the test system is OVCAR-3 ovarian. Briefly: NCI-60 cell line screen, 48 h.
For `N#C/C(=C/N1CCN(C(=O)c2ccco2)C1=S)C(=O)c1ccccc1`, the GI50 is 18.2 µM and the TGI came to 57.2 µM.
In the case of `CN(CCCNC(=O)Cc1ccc2ccc3cccc4ccc1c2c34)CCCNc1cc(-c2ccc3ccccc3c2)nc2ccccc12`, the GI50 was 1.76 µM and the TGI worked out at 3.29 µM.
`COCCOc1cnc2ccn([C@H](C)c3nnc4c(F)cc(-c5cnn(C)c5)cn34)c(=O)c2c1`: the GI50 is more than 100 µM and the TGI is more than 100 µM.
Regarding `O=C(Nc1ccc(-n2cc(-c3ccncc3)c(-c3ccc(Cl)c(O)c3)n2)cc1)Nc1ccc(Cl)c(C(F)(F)F)c1`, the GI50 is 1.48 µM and the TGI was found to be 3.11 µM.
Turning to `Cc1cc(S(=O)(=O)N/N=C(\Sc2cc(Cl)c(C)cc2S(N)(=O)=O)c2ccc(Cl)cc2)c(Cl)cc1Cl`, the GI50 is 31.1 µM and the TGI was more than 100 µM.
For the compound `COc1ccc(C(=O)COc2cccc(/C=C3\Oc4ccc5ccccc5c4C3=O)c2)cc1`, the GI50 was 1.78 µM and the TGI was 3.54 µM.
As for `COc1ccc(-c2oc3cc(O)c(OC)c(O)c3c(=O)c2OC)cc1O`, the GI50 was 0.0432 µM and the TGI was found to be 0.194 µM.
Consider `Cc1c(C2=C(Br)C(=O)N(C)C2=O)c(=O)n(C)c(=O)n1C`, for which the TGI is more than 100 µM.
As to `Cc1cc(N/N=C/c2nc(-c3ccc(Br)cc3)oc2C)c2cc(Br)ccc2n1`, the GI50 is 2.08 µM and the TGI worked out at 4.25 µM.
As for `CC(C)OC(=O)NNc1cc(Cl)ccc1Cl`, the TGI was more than 100 µM.
On to `Cc1cc(C2CC(O)C(CO)O2)cc2c(=O)[nH]c(N)nc12` (stereo not given), for which the GI50 is more than 100 µM and the TGI was more than 100 µM.
As to `COc1ccc2c(O)cc3c(c2c1)[C@H](CCl)CN3C(=O)c1cc2cc(NC(=O)CCN3CCOCC3)ccc2[se]1`, the GI50 is less than 0.001 µM and the TGI is more than 10 µM.
In the case of `CC(C)N=c1cc2n(-c3ccc(Cl)cc3)c3ccccc3nc-2cc1Nc1ccc(Cl)cc1`, the GI50 is 1.21 µM and the TGI amounted to 2.76 µM.
In the same order, the values of `Cc1cc2c(cc1Cl)SC(=Nc1ccc(Cl)cc1)N(S(=O)(=O)c1ccccc1)S2(=O)=O` are 1.55 µM and 7.11 µM.
As to `C=C1C(=O)O[C@H]2[C@H]1CC/C(COC(=O)c1ccc(Cl)nc1)=C\CC[C@@]1(C)O[C@@H]21`, the GI50 is 1.03 µM and the TGI turned out to be 2.32 µM.
Turning to `C=C1C(=O)O[C@H]2/C=C(/C)C3=CC(=O)[C@@](C)(C[C@@H](OC(=O)/C(C)=C\C)C12)O3` (stereo not given in full), the GI50 is 1.24 µM and the TGI was 5.04 µM.
On the same counts, the results for `O=C(CSC(c1ccccc1)c1ccccc1)N/N=C/c1ccc(Cl)cc1Cl` are 29.2 µM and 83 µM.

The test system of another test is OVCAR-4 ovarian. Put plainly: NCI-60 cell line screen, 48 h.
Turning to `N#C/C(=C/N1CCN(C(=O)c2ccco2)C1=S)C(=O)c1ccccc1`, the GI50 was 29.8 µM and the TGI was 93.2 µM.
In the same order, the values of `CN(CCCNC(=O)Cc1ccc2ccc3cccc4ccc1c2c34)CCCNc1cc(-c2ccc3ccccc3c2)nc2ccccc12` are 1.46 µM and 2.78 µM.
Regarding `COCCOc1cnc2ccn([C@H](C)c3nnc4c(F)cc(-c5cnn(C)c5)cn34)c(=O)c2c1`, the GI50 is 52 µM and the TGI is more than 100 µM.
In the same order, the values of `O=C(Nc1ccc(-n2cc(-c3ccncc3)c(-c3ccc(Cl)c(O)c3)n2)cc1)Nc1ccc(Cl)c(C(F)(F)F)c1` are 0.639 µM and 6.12 µM.
On to `Cc1cc(S(=O)(=O)N/N=C(\Sc2cc(Cl)c(C)cc2S(N)(=O)=O)c2ccc(Cl)cc2)c(Cl)cc1Cl`, for which the GI50 is 63.1 µM and the TGI is more than 100 µM.
In the same order, the values of `COc1ccc(C(=O)COc2cccc(/C=C3\Oc4ccc5ccccc5c4C3=O)c2)cc1` are 5.08 µM and 17.5 µM.
As for `COc1ccc(-c2oc3cc(O)c(OC)c(O)c3c(=O)c2OC)cc1O`, the GI50 was 1.26 µM and the TGI was more than 100 µM.
In turn, `Cc1c(C2=C(Br)C(=O)N(C)C2=O)c(=O)n(C)c(=O)n1C` yielded a TGI of more than 100 µM.
